Assays:
glioblastoma (GBM) cells = assay: In vitro functional assays in glioblastoma cells (proliferation, migration, tumoursphere formation, VEGF secretion, apoptosis, marker expression); type: cell-based, human
Method: The proliferation assay (see below) was used to develop a dose-response and IC50 determination of pladienolide-b in glioblastoma cells. The selected doses of pladienolide-b, based on previously reported in vitro studies, were 10^-9 , 10^-7 and 10^-5 M measured 48 h after administration of the SF3B1 inhibitor in glioblastoma cell lines and patient-derived primary glioblastoma cell culture. Least squares regression was used as a method of adjustment to the IC50 determination.
As described above, cell proliferation and migration in response to pladienolide-b treatment were analyzed using the alamar blue assay (3,000 cells/well for cell lines and 10,000 cells/well for primary cell cultures; Biosource International, # BUF012B) and the wound healing technique (150,000 U-118 MG cells/well), respectively. For the migration assay, U-118 MG cells cultured at confluence were serum deprived for 24 h to achieve cell synchronization and then wounded with a sterile 200 µl pipette tip. Wells were replaced and cells were incubated for 6 h and 24 h with medium supplemented without FBS. Wound healing was compared to the area immediately after wounding. […]
The VEGF human ELISA kit (ThermoFisher Scientific, no. KHG0112) was used to quantify VEGF secretion in response to pladienolide-b in glioblastoma cell lines, following the manufacturer's instructions. […]

U-87 MG cells = assay: Preclinical xenograft GBM mouse model, intratumoral injection; type: in vivo, mice
Method: A preclinical xenograft mouse model was developed to test pladienolide-b in vivo. Five-week-old ATHYMFoxn1nu/nu mice (n = 6; Janvier-Labs) were subcutaneously injected with 3×10^6 of U-87 MG cells in both flanks [in 100 µl of basal membrane extract (Trevigen, # 3432-010-01)]. Once the tumour was clearly measurable (10 days after cell inoculation), each mouse received an intratumour injection with 50 µl of pladienolide-b (10^-7 M) in one flank and vehicle (1x DPBS, Sigma-Aldrich, # D1408) used as a control in another flank. Tumour growth was monitored every 2 days using a digital caliper. 20 days after injection, mice were sacrificed and each tumour was dissected, fixed, and sectioned for histopathological examination after staining with haematoxylin and eosin. Examination of the number of mitoses, vascular proliferation and necrosis was performed by experienced pathologists. Additional tumour pieces were in liquid nitrogen until RNA extraction using Trizol reagent and protein extraction using SDS-DTT buffer, as previously reported. One individual was assessed by micro-CT imaging using SkyScan1176 Bruker and a software environment to show the location of the tumour in vivo prior to dissection. 2D analysis along with 3D image rendering was performed using VolView 3.4 software (KitWare Inc). […]

SMILES: CC[C@H](O)[C@@H](C)[C@H]1O[C@@H]1C[C@H](C)/C=C/C=C(\C)[C@H]1OC(=O)C[C@H](O)CC[C@@](C)(O)[C@@H](OC(C)=O)/C=C/[C@@H]1C [pladienolide-b, [(2 S, 3 S, 4 E , 6 S , 7 R , 10 R ) -7,10-dihydroxy-2 - [(2 E , 4 E, 6 S ) -7 - [(2 R , 3 R ) -3 - [(2 R , 3 S ) -3-hydroxypentan-2-yl]oxiran-2-yl] -6-methylhepta-2,4-dien-2-yl] -3,7-dimethyl-12-oxo-1-oxazacyclododec-4-en-6-yl] acetate]
- critical functional parameters of aggressiveness and key markers of tumour development/progression/aggressiveness (glioblastoma (GBM) cells; 10^-7 M, compared to control conditions, U-87 MG, U-118 MG and patient-derived primary GBM cells): decreases
- several functional parameters in vitro (glioblastoma (GBM) cells; summary statement (Figure 4)): reduced
- glioblastoma (GBM) progression and vascularization (U-87 MG cells; U-87 MG xenograft, intratumour injection of 50 µl (10^-7 M) versus vehicle-treated flank): alters
- several functional parameters in vivo (U-87 MG cells; in vivo, summary statement (Figure 5)): reduced
